The results in this text go back to US8535897B2, “Assays for non-apoptotic cell death and uses thereof” (The Trustees of Columbia University in the City of New York, priority 2006, dated 2013).

One assay has as its system VDAC2. Nature of the assay: VDAC isoform levels after erastin treatment (quantitative 2D western). The assay is classed as cell-based, human. To be noted: BJ-TERT/LT/ST/RASV12 cells. The source says: (§1) (a) Quantitative western blot of VDAC/eif4E protein ratio in engineered BJ-derived cells. (b) Identification of VDAC isoforms in BJ-TERT/LT/ST/RAS^V12 cells using 2-D electrophoresis. i) VDAC1, VDAC2 and VDAC3 were detected by a rabbit polyclonal VDAC antibody (Abcam/ab3434), ii) VDAC1 was detected by a mouse monoclonal VDAC1 antibody (Calbiochem/529534), iii) VDAC2 was detected by a goat polyclonal VDAC2 antibody (Abcam/ab22170), iv) An illustration of 3 isoforms of VDAC separated by the 2-D gel electrophoresis. (c) BJ-TERT/LT/ST/RASV12 cells were treated with erastin for the indicated time and levels of each VDAC isoform determined by quantitative 2D western. (d,e) Infection with VDAC3 shRNA protects erastin-treated cells. 293T cells were transfected with shRNA-plasmid construct using FuGene and viral supernatant transferred to HT1080 cells, and treated with erastin dilutions and viability measured using Trypan Blue exclusion. […] (f) Quantitative RT-PCR measurements of mRNA levels of the 3 VDAC isoforms after infection with shVDAC3. Knockdown was determined by normalizing to the levels in the shGFP-infected control. […] (g) Mitochondria were purified from yeast expressing murine VDAC3 in place of yeast VDAC, and the rate of NADH uptake determined in the presence or absence of erastin, or in shocked mitochondria in which the outer membrane was disrupted. […]

In a further assay the test system is VDAC3. Described as above. The assay is classed as cell-based, human. The note with it: BJ-TERT/LT/ST/RASV12 cells.
Text: as §1

Another assay concerns EWS502. In words: Response of tumor cell lines to erastin (dose-response). The assay is classed as cell-based. The note with it: EWS 502. The method, then:
(§2) In certain aspects, the invention provides that erastin is lethal to tumor cells with activating mutations in proteins downstream of RAS proteins. Dose-response of 30 tumor cell lines to erastin was measured, and at least 50% inhibition of cell viability in 19 of the 30 tumor cell lines was formed. Numerous sarcoma-derived tumor cell lines were sensitive to erastin, consistent with the fact that erastin was discovered in an engineered tumor cell line created from human fibroblasts. Non-limiting examples include, HT1080 fibrosarcoma cells. HT1080 fibrosarcoma cells, which have a known activating mutation in NRAS, (Plattner, R. et al. Differential contribution of the ERK and JNK mitogen-activated protein kinase cascades to Ras transformation of HT1080 fibrosarcoma and DLD-1 colon carcinoma cells. Oncogene. 18: 1807-17 (1999), were quite sensitive to erastin. In order to determine whether RAS-activated signaling was modulated in cell lines that respond to erastin, the phosphorylation status of ERK1/2 in 12 sarcoma cell lines with a range of sensitivities to erastin was evaluated. In certain aspects, the invention provides a non-zero correlation, such as for example, a correlation coefficient of 0.41, between ERK1/2 phosphorylation status and erastin sensitivity in these cell lines.
(§3) Given that oncogenic RAS activates at least four downstream pathways, analysis was performed to identify which downstream effects were necessary for erastin sensitivity. In certain embodiments, the invention provides that erastin inhibits growth and kills genuine tumor cells with RAS mutations. In other embodiments, the invention provides measures of the dose-response of 29 tumor cell lines to erastin, wherein there is at least 50% inhibition of viability in 18 of the cell lines (Table 4). Numerous sarcoma-derived tumor cell lines were sensitive to erastin, consistent with the fact that erastin was discovered in an engineered tumor cell line created from human fibroblasts.

The next assay deals with HL-60. The description is as above. The assay is classed as cell-based. The method, then:
as §2, §3

Molecules are shown by their SMILES.

For `CCOc1ccccc1-n1c(C(C)N2CCN(C(=O)COc3ccc(Cl)cc3)CC2)nc2ccccc2c1=O` (stereo not shown) [erastin], in the assay with VDAC2, the “treatment time after which VDAC2 became undetectable” value came to 10 h. Further, the “treatment time after which VDAC3 was no longer detectable” value in the assay with VDAC3 was determined as 8 h. Further, the “Erastin Sensitivity (maximum killing induced by erastin)” value with EWS502 was determined as 0.42; in the assay with HL-60, 0.00.
